Test results published in patent US12329158B2, “Large-scale methods of uniformly coating packaging surfaces with a volatile antimicrobial to preserve food freshness” (AGROFRESH INC., priority 2013, dated 2025).
Converted amounts (≈) assume the structure as drawn.

How the values were obtained:
[1] = test system: Botrytis cinerea; assay: Volatile release from materials treated by sublimation (Example 14); assay type: cell-based
Description: An in vitro assay is used to evaluate the ability of compound A to volatilize from different materials and control fungal growth. Cardboard box (Category 1), PET plastic (Polyethylene terepthalate—PET) and Polyethylene are used. The materials are cut into equal dimensions (10×19 cm^2) and placed inside a 36-L acrylic desiccator cabinet (Fisher Scientific, cat no. 08-642-23C) in duplicate.
The acetone is allowed to evaporate for 1 minute at 60° C. Compound A is then introduced as a gas into the cabinets by a sublimation device (copper tube heated to 180° C. with fan flow at 0.5 L/min) to achieve a final headspace concentration of 0.3, 0.06 and 0.012 mg/L). The chambers are then incubated at 23° C. for 24 hours, then treated materials are carefully removed and placed inside a clean 10.8 cup SnapWare airtight container (Model #109842) containing a 10-cm diameter Petri dish with PDA and inoculated with 1 μL of […] of B. cinerea. The containers are then tightly sealed for 3 days at 23° C. After 3 days of storage, cultures are evaluated for percent growth relative to control.

[2] = test system: Epidermophyton floccus; assay: In vitro volatile assay (Example 26); assay type: cell-based; conditions: Epidermophyton, 120 h, 5 days at 28 C, 100% control, read-out: MIC (mg/L) Epidermophyton floccus
Description: (§1) Volatile assay: 6-well (16.5 mL volume per well) microtiter plates are used in an in vitro inhibition assay for Compounds A and 31, and compared to other registered fungicides (5-fluorocytosine, Amphotericin B, aspofungin diacetate, Fluconazole and Itraconazole). A 7.5-mL volume of half strength PDA is added to each well. After drying, a mycelial plug (5 mm diameter) is aseptically obtained from actively growing cultures of Epidermophyton floccus, Trichophyton rubrum, or Trichophyton mentagrophytes and placed at the center of the plate with the mycelial side in contact with the agar. A Whatman #1 filter disk (Cat. No. 1001-325) is placed, in duplicate, on the underside of a polyethylene PCR plate sealing film. […] The headspace around the inoculum is then sealed inside the well by the film with the adhering disk containing the fungicide and incubated inverted for 5 days at 28° C.

[3] = test system: Trichophyton mentagrophytes; assay: In vitro volatile assay (Example 26); assay type: cell-based; conditions: Trichophyton mentagrophytes, 120 h, 5 days at 28 C, 100% control, read-out: MIC (mg/L) Trichophyton mentagrophytes
Description: as §1

[4] = test system: Trichophyton rubrum; assay: In vitro volatile assay (Example 26); assay type: cell-based; conditions: Trichophyton rubrum, 120 h, 5 days at 28 C, 100% control, read-out: MIC (mg/L) Trichophyton rubrum
Description: as §1

[5] = test system: Penicillium digitatum; assay: Green mold on orange, volatile assay (Example 25); assay type: in vivo; conditions: 50 mg/L, day 3 at 21 C after 5 days at 1 C
[6] = test system: Penicillium expansum; assay: In vitro volatile assay (Example 24); assay type: cell-based; conditions: 72 h, headspace, 100% control, 3 days at 23 C, read-out: Volatile MIC (mg/L) P. expansum
Description: (§2) Volatile assay: 12-well (6.5 mL volume per well) microtiter plates are used. A 3-mL volume of half strength PDA is added to each well. […] A Whatman #1 filter disk (Cat. No. 1001-0155) is placed, in duplicate, on the underside of a polyethylene PCR plate sealing film. […] The acetone is permitted to evaporate for 5 minutes. The headspace around the inoculum is then sealed inside the well by the film with the adhering disk containing the fungicide. Plates are inverted, placed over the treated disks, and sealed to prevent any of the chemical from flaking from the disk and falling onto the inoculated agar. […] Contact assay: 6-well (16.5 mL volume per well) microtiter plates are used for an in vitro inhibition assay. […] A 7.5-mL volume of the amended media is added to each well of the microtiter plate. […] The plates are sealed with a clear film and incubated for 3 days at 23° C. After incubation, plates are evaluate for percent growth relative to acetone only control.

[7] = test system: Botrytis cinerea; assay: In vitro volatile assay (Example 24); assay type: cell-based; conditions: 72 h, headspace, 100% control, 3 days at 23 C, read-out: Volatile MIC (mg/L) B. cinerea
Description: as §2

[8] = test system: Escherichia coli; assay: In vitro volatile inhibition assay against bacteria (Example 8); assay type: cell-based; design: key: 0 = No colonies; 1 = Micro colonies not connected; 2 = Small colonies with some merging; 3 = Large colonies merging together; conditions: 5.00 mg per disk
Description: For testing activity against bacteria pathogens, 12-Well (7 mL volume per well) microtiter plates are used for the in vitro inhibition assay for volatile antimicrobial compounds. A 3-mL volume of full-strength LB Agar is added to each well. After cooling, 15 μL of Escherichia coli, adjusted to an optical density of 0.02 to 0.035, and further diluted 1/10 is pipetted to the center of the agar and tilted to distribute uniformly. Small Whatman #1 filter disks (Cat. No. 1001-0155) are placed, in duplicate, on the underside of a polyethylene polymerase chain reaction (PCR) plate sealing film. For determination of the minimum inhibitory concentration (MIC), Compound A is diluted in acetone, and 5 mg of compound is added to the disks. The acetone is permitted to evaporate for 5 minutes. The headspace around the Escherichia coli inoculum is then sealed inside the well by the film with the adhering disk containing the fungicide. Plates are inverted, placed over the treated disks and sealed to prevent any of the chemical from flaking from the disk and falling onto the inoculated agar. After 3 days of storage at 4° C., cultures are transferred to 23° C. for an additional 2 days, and then evaluated for colony growth relative to control.

[9] = test system: Aspergillus brasiliensis; assay: Headspace treatment of inoculated grains (Example 28); assay type: in vivo; conditions: for Fungal growth on PDA (mm): 10 mg/L headspace
Description: An in vivo assay is used to evaluate the ability of Compound A (1-hydroxy-5-fluoro-1, 3-dihydro-2, 1-benzoxaborole) to control fungal growth of seeds.
Grains consisting of corn, wheat, rice, rye, millet and barley are surface sterilized with 0.825% NaOCl for 1 minute and rinsed thrice with sterile distilled water. The grains are inoculated by soaking them in a 1×10^6 spores/mL suspension of Aspergillus brasiliensis for 1 minute. The excess inoculum is blotted out with a sterile paper towel before plating five seeds in a Petri plate containing 25 mL of PDA. For determination of efficacy, Compound A is diluted in acetone and added to 42.5 mm Whatman #1 filter disks (Cat. No. 1001-042) attached to the inner side of the lid in a dose dependent manner to achieve a final headspace concentration of 0.4, 2, or 10 mg/L. The acetone is permitted to evaporate for five minutes before closing plate and sealing it with parafilm. The plates are incubated at 23° C. for three days.

## OB1OCc2cc(F)ccc21 [Compound A, 5-fluoro-1,3-dihydro-1-hydroxy-2,1-benzoxaborole]
[1]; Rate 0.012 mg/L, Cardboard
  Incidence (%): 100.0%
[1]; Rate 0.012 mg/L, Clamshell
  Incidence (%): 100.0%
[1]; Rate 0.012 mg/L, Polyethylene
  Incidence (%): 99.0%
[1]; Rate 0.06 mg/L, Cardboard
  Incidence (%): 91.7%
[1]; Rate 0.06 mg/L, Clamshell
  Incidence (%): 100.0%
[1]; Rate 0.06 mg/L, Polyethylene
  Incidence (%): 86.7%
[1]; Rate 0.3 mg/L, Cardboard
  Incidence (%): 9.3%
[1]; Rate 0.3 mg/L, Clamshell
  Incidence (%): 4.1%
[1]; Rate 0.3 mg/L, Polyethylene
  Incidence (%): 4.9%
[2]
  MIC: 2 mg/L (≈ 13.2 µM)
[3]
  MIC: 2 mg/L (≈ 13.2 µM)
[4]
  MIC: 2 mg/L (≈ 13.2 µM)
[5]
  Orange Sporulation (mm): 0.0 mm
[6]
  MIC: 2.2 mg/L (≈ 14.5 µM)
[7]
  MIC: 0.3 mg/L (≈ 1.97 µM)
[8]
  Colony Rating: 1
[9]; Barley
  Fungal growth on PDA (mm): 0 mm
[9]; Corn Dry
  Fungal growth on PDA (mm): 0 mm
[9]; Millet
  Fungal growth on PDA (mm): 0 mm
[9]; Rice
  Fungal growth on PDA (mm): 0 mm
[9]; Rye
  Fungal growth on PDA (mm): 0 mm
[9]; Wheat
  Fungal growth on PDA (mm): 0 mm
[9]; grains, headspace treatment
  control of Aspergillus brasiliensis: 100%
